Measured values published in patent publication US20250008983A1, “COMPOSITIONS CONTAINING PEROXYACIDS TO CONTROL PATHOGEN GROWTH IN ANIMAL FEED AND RELATED METHODS” (KEMIN INDUSTRIES, INC., priority 2023, published 2025).
Where “and” joins values, the source holds several entries; their conditions need not be identical. Equal values may be shown once.

Experiments:
[1] = test system: Salmonella enterica isolated from layer feed; assay: Preliminary in vitro feed assay, Salmonella count in contaminated feed over 21 days; assay type: cell-based; details: 15 kg/ton; pre-treatment Day 0
Procedure: Preparation of the treatment. Perpropionic acid, peracetic acid, mixture of peroctanoic acid and perdecanoic acid (PC8/PC10) and Sal CURB products were used without any further dilution or mixing. The peroxy mix was prepared by mixing peracetic and perpropionic acid in 1:1 weight ratio. Briefly, 1.0 g of peroxy mix was prepared by weighing 0.5 g of peracetic acid into 0.5 g of perpropionic acid. The mixture was mixed well prior to usage. Similar procedure was followed in the preparation of 3% sulphuric acid (where […] of water) and peroxy mix with ester (where 0.9 g of peroxy mix (prepared with peracetic and propionic acid) was mixed with 0.1 g of propylene glycol propionate esters). […] Briefly, 1 mL of 75% phosphoric acid was added to 10 mL of Pro-Oxine solution and mixed well. The mixture is covered and let to stand for 10 mins prior to usage.
Preparation of stock feed inoculum. The researchers prepared contaminated feed from known methods, where Salmonella enterica isolated from layer feed was revived from the glycerol stock by plating a loopful of culture onto the TSAYE (i.e., tryptone soya agar supplemented with 0.6% yeast extract (CM0131B; Oxoid) prepared as per recommended) and incubate for 18-24 hours at 37° C. Following which, the colonies were collected aseptically with saline solution (i.e., 0.9% sodium chloride (V800372; Sigma-Aldrich) prepared in deionized water), yielding approximately 5 mL of biomass suspension. The biomass suspension was diluted accordingly to meet the contamination level required for the stock inoculum. No dilution was required for high contamination level of ca. 10^7 cfu/g whereas biomass suspension was diluted 1000 times to achieve lower contamination level of ca. 10^4 cfu/g in the stock inoculum. The stock feed inoculum was prepared by adding the biomass suspension (5 mL) into 100 g of sterile feed (made up with 7:3 ground corn and soybean, autoclaved at 121° C. for one hour and dried for 24 hours at 65° C.) with a syringe and needle, and homogenously mixed after. The stock feed inoculum was stored at 25° C. for a week. Salmonella count of the stock inoculum was determined using conventional plating method with XLD agar (i.e., Xylose lysine deoxycholate (CM0469B; Oxoid)) and BPW (i.e., buffered peptone water (CM0509B; Oxoid)) prior to usage. Briefly, three grams of stock feed inoculum was weighed into a 50 mL conical tube, diluted with 27 mL of BPW, homogenously mixed and left to stand for 30 minutes. The feed suspension was then serial diluted to the appropriate dilutions. An aliquot of 0.1 mL of the feed suspension was plated onto the agar at each dilution and incubated at 37° C. for 18-24 hours prior to enumeration. Plating was carried out in triplicates. Blank stock feed was prepared by adding 5 mL of saline into 100 g of sterile feed.
Preparation of the feed inoculum. The stock feed inoculum was diluted approximately 100 times with sterile feed where three grams of stock inoculum was added into 307 g of sterile feed and kept at 37° C. for 24 hours. The Salmonella count of the feed was determined prior to treatment. Briefly, 90 mL of BPW was added into 10 g of feed sample in a sterile bag (10^−1 dilution). The mixture was homogenously mixed with a stomacher at medium speed for three minutes and left to stand for 30 minutes. The feed supernatant was serial diluted to appropriate dilutions for plating. The plates were incubated at 37° C. for 18-24 hours prior to counting. If low Salmonella count was expected, the sample size was increased to 1 mL by plating 300, 300 and 400 uL onto three plates in triplicates for […] detection limit (10 cfu/g). Blank feed was prepared by adding three grams of blank stock feed into 307 g of sterile feed. In addition, an extra contaminated feed was prepared as a control.
Treatment of contaminated feed. […]

[2] = test system: S. enteriditis ATCC 13076; assay: Cell membrane permeability, crystal violet assay; assay type: cell-based, Salmonella enteriditis; details: n = 3, two hours at 37° C., ~pH 7, listed as PPA
Procedure: Method. Cell membrane permeability was determined through crystal violet assay where an alteration in the outer cell membrane will result in a higher uptake of the dye, indicating a greater membrane permeability. An overnight culture of S. enteriditis ATCC 13076 in TSBYE was harvested with centrifugation at 6700 rcf for five minutes at room temperature using Eppendorf Centrifuge 5810 R. Upon aspirating the TSBYE, the cell pellets were washed with phosphate-buffered saline (PBS, pH 7.4, 10 mM) twice and resuspended in PBS. Subsequently, 0.75 mL of the cell suspension was added to 0.75 mL of the treatment (prepared in 10 mM PBS) into a two-milliliters microcentrifuge tube and incubated for two hours at 37° C. with agitation at 150 rpm. Cells without any treatments served as the negative control. After two hours of incubation, the cells were again harvested with centrifugation at 6700 rcf for five mins. Subsequently, the cells were resuspended in 10 μg/mL of crystal violet solution prepared in PBS and incubated for another 15 minutes with agitation at 150 rpm. After incubation, the suspension was centrifuged at 13,000 rcf for 15 minutes. The absorbance of the supernatant in each tube was measured at 590 nm. The percentage of dye uptake was calculated based on the ratio of absorbance values (Equation 1).

[3] = Degradation of PPA in diluted/Opticurb solutions with mild steel; assay type: physicochemical; details: in contact with mild steel
Procedure: Degradation of PPA in diluted/Opticurb solutions with mild steel. In another study, the solution of PPA with different diluents was measured for the peroxyacid content initially and after 1 h of immersing the […] to test the PPA degradation rate.

[4] = 2.5% ammonium hydroxide, after 15 minutes
[5] = 2.5% ammonium hydroxide, after 60 minutes
[6] = 5% sodium hydroxide, after 15 minutes
[7] = 5% sodium hydroxide, after 60 minutes
[8] = Sodium phosphate buffer, after 15 minutes
[9] = Sodium phosphate buffer, after 60 minutes

Which results are given for `CCC(=O)OO` [Perpropionic acid, perpropionic acid]?
Salmonella count [1]: 5.62 log cfu/g; Dye uptake, Average ± SD ([2]; 1 kg/T): 67.32% and 67.32 ± 0.80^d %; Dye uptake, Average ± SD ([2]; 2.5 kg/T): 83.82% and 83.82 ± 0.78^e %; Dye uptake, Average ± SD ([2]; 5 kg/T): 88.27% and 88.27 ± 0.42^f %; PPA degradation/min ([3]; 2.5% ammonium hydroxide): 1.10%; H2O2 (%) [3, 4]: 0.77%; PPA (%) [3, 4]: 2.03%; H2O2 (%) [3, 5]: 0.44%; PPA (%) [3, 5]: 0.97%; PPA degradation/min ([3]; 5% sodium hydroxide): 1.16%; H2O2 (%) [3, 6]: 0.9%; PPA (%) [3, 6]: 2.93%; H2O2 (%) [3, 7]: 0.37%; PPA (%) [3, 7]: 1.48%; H2O2 (%) [3, 8]: 1.67%; PPA (%) [3, 8]: 5.27%; H2O2 (%) [3, 9]: 1.6%; PPA (%) [3, 9]: 4.67%; PPA degradation after an hour ([3]; ammonium hydroxide (2.5% wt)): 50%; PPA degradation after an hour ([3]; sodium hydroxide (5% wt.)): 52%; PPA degradation after an hour ([3]; sodium phosphate buffer): ~11%; PPA degradation/min ([3]; sodium phosphate buffer): 0.25%
